Experimental data as given in patent US4006243A, “Amino-, mercapto- and -oxy-substituted-phenyl and -phenalkyl imidazoles” (Schering Aktiengesellschaft, priority 1974, dated 1977).

Assays:
Format in all cases: cell-based
[1] = system: Candida albicans; experiment: MIC by the tube test against Candida albicans (Table I)
Text: (§1) Table I illustrates the high activity of the compounds of this invention, using as examples the compounds numbered 5-25, which are compared to the known compounds 1-4, viz., the ethyl ester of 1-(1,2,3,4-tetrahydro-1-naphthyl)-imidazole-5-carboxylic acid (Etonam) and the commercially available 2-dimethylamino-6-(β-diethylaminoethoxy)-benzothiazole, dihydrochloride (Dimazol dihydrochloride), as well as N-(2-hydroxybenzyl)-imidazole and N-(4-hydroxybenzyl)-imidazole (Bull. Soc. Chim. France 1973, 1179). The MIC values were determined by the tube test.

[2] = system: Trichophyton mentagrophytes; experiment: MIC by the tube test against Trichophyton mentagrophytes (Table I)
Text: as §1

[3] = system: Trichophyton rubrum; experiment: MIC by the tube test against Trichophyton rubrum (Table I)
Text: as §1

Minimum Inhibitory Concentration MIC against Candida albicans [1] | Minimum Inhibitory Concentration MIC against Trichophyton mentagrophytes [2] | Minimum Inhibitory Concentration MIC against Trichophyton rubrum [3] | SMILES
inactive | inactive | – | Oc1ccccc1Cn1ccnc1 [Compound 3, N-(2-Hydroxybenzyl)-imidazole]
inactive | inactive | inactive | CCN(CC)CCOc1ccc2nc(N(C)C)sc2c1.Cl.Cl [Compound 2, 2-Dimethylamino-6-(β-diethylaminoethoxy)-benzothiazole, dihydrochloride]
inactive | inactive | inactive | Oc1ccc(Cn2ccnc2)cc1 [Compound 4, N-(4-Hydroxybenzyl)-imidazole]

SMILES | Minimum Inhibitory Concentration MIC against Candida albicans [1] | Minimum Inhibitory Concentration MIC against Trichophyton mentagrophytes [2] | Minimum Inhibitory Concentration MIC against Trichophyton rubrum [3]
CCOC(=O)c1cncn1C1CCCc2ccccc21 (stereo not drawn) [Compound 1, 1-(1,2,3,4-Tetrahydro-1-naphthyl)-imidazole-5-carboxylic Acid Ethyl Ester] | inactive | – | –
